{"source": "paper PMC6934184", "about": "“Selective DNA-PKcs inhibition extends the therapeutic index of localized radiotherapy and chemotherapy” (The Journal of Clinical Investigation, 2019)", "biological_target": "T1, CLK2 (Homo sapiens, UniProt P49760)", "T1 construct": "purchased Thermo Fisher Scientific (Life Technologies) SelectScreen", "T1 sequence (P49760 whole entry)": "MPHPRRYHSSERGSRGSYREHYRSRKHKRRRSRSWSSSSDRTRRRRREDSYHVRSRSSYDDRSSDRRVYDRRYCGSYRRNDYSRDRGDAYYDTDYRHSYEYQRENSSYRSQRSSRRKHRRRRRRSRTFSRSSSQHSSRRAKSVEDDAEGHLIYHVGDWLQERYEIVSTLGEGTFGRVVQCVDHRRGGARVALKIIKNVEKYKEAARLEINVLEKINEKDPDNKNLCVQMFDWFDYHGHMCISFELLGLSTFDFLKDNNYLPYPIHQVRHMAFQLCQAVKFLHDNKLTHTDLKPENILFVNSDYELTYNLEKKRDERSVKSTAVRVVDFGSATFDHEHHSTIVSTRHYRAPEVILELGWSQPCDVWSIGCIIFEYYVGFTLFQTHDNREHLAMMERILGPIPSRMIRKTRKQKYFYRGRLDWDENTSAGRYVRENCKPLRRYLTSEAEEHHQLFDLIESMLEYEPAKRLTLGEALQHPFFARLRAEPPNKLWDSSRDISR", "assay": "SelectScreen Z'LYTE", "format": "biochemical", "procedure,_shortened": "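NU5455 was profiled across the SelectScreen Broad panel of kinase activity and binding assays. Z'LYTE reactions such as CSF1R ran at apparent Km ATP, while the Adapta CAMK1 assay used ATP listed as 10. Values are given as percent.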"}
{"smiles": "CN(C(=O)CN1CCOCC1)c1ccc2sc3c(-c4cccc5c(=O)cc(N6CC7CCC(C6)O7)oc45)cccc3c2c1", "note": "[NU5455]", "values": [{"measurement": "inhibition at 1 µM", "value": 4.1, "unit": "%"}]}
